Source: patent US20210292347A1, “DIHETEROCYCLIC TRIAZINONE NUCLEOSIDE ANALOGS AND THEIR USE FOR MEDICATION” (priority 2020, published 2021)

Test system: mice sarcoma S180
Test: Growth inhibition of S180 sarcoma in mice
Format: in vivo, Kunming healthy mice
Settings: for in-vivo anti-tumor efficacy, statistical significance (in words): S180 sarcoma in mice, doses and routes of Table 3
[1] = Mus musculus, S-180, mice, ip, 200 mg/kg, read-out: Inhibition rate (%) S180 sarcoma
[2] = Mus musculus, S-180, mice, ip, 100 mg/kg, read-out: Inhibition rate (%) S180 sarcoma
[3] = Mus musculus, S-180, mice, iv, read-out: Inhibition rate (%) S180 sarcoma

What does the source list for “2-(3,4-dihydroxy-5-(hydroxymethyl)tetrahydrofuran-2-yl)-7-hydroxy-5-propyl-2,7-dihydro-1H-pyrazolo[4,3-d][1,2,3]triazin-1-one [Example 14]”?
in-vivo anti-tumor efficacy, statistical significance (in words): statistically significant; Inhibition rate (%) S180 sarcoma (mice, iv, 12.5 mg/kg): ++ (++ represent of Inhibition rate % <40)

For CN(C)CCC(=O)Nc1nn(O)c2c(=O)n(C3OC(CO)C(O)C3O)nnc12 (centres unmarked) [Example 16, N-(3-(3,4-dihydroxy-5-(hydroxymethyl)tetrahydrofuran-2-yl)-5-hydroxy-4-oxo-4,5-dihydro-3H-pyrazolo[4,3-d][1,2,3]triazin-7-yl)-3-(dimethylamino) propanamide], which “Inhibition rate (%) S180 sarcoma” value (mice, ip, 100 mg/kg) is on record?
Its value is “+ (+ represent of Inhibition rate % <20)”.

How did the inhibition in vivo at 25 mg/kg (Mus musculus, S-180, mice, iv, 25 mg/kg, read-out: Inhibition rate (%) S180 sarcoma) turn out when N#Cc1nn(O)c2c(=O)n(C3OC(CO)C(O)C3O)nnc12 (centres unmarked) [Example 17, 3-(3,4-dihydroxy-5-(hydroxymethyl)tetrahydrofuran-2-yl)-5-hydroxy-4-oxo-4,5-dihydro-3H-pyrazolo [4,3-d][1,2,3]triazine-7-carbonitrile] was run?
The inhibition in vivo at 25 mg/kg was < 40%.

And the “in-vivo anti-tumor efficacy, statistical significance (in words)” value?
The value was “statistically significant”.

How did the inhibition in vivo at 200 mg/kg [1] turn out when O=c1c2c(nnn1C1OC(CO)C(O)C1O)c(N1CCCCC1)nn2O (centres unmarked) [Example 18, 3-(3,4-dihydroxy-5-(hydroxymethyl)tetrahydrofuran-2-yl)-5-hydroxy-7-(piperidin-1-yl)-3H-pyrazolo [4,3-d][1,2,3]triazin-4(5H)-one] was run?
Its inhibition in vivo at 200 mg/kg is < 20%.

With COc1ccc(C(=O)Nc2nn(O)c3c(=O)n(C4OC(CO)C(O)C4O)nnc23)cc1 (centres unmarked) [Example 20, N-(3-(3,4-dihydroxy-5-(hydroxymethyl)tetrahydrofuran-2-yl)-5-hydroxy-4-oxo-4,5-dihydro-3H-pyrazolo[4,3-d][1,2,3]triazin-7-yl)-4-methoxybenzamide] as the compound, how does the inhibition in vivo at 200 mg/kg [1] read?
The inhibition in vivo at 200 mg/kg was < 20%.

What does the source list for CCOC(=O)c1nn(C)c2c(=O)n(C3OC(CO)C(O)C3O)nnc12 (centres unmarked) [Example 22, ethyl 3-(3,4-dihydroxy-5-(hydroxymethyl)tetrahydrofuran-2-yl)-5-methyl-4-oxo-4,5-dihydro-3H-pyrazolo[4,3-d][1,2,3]triazine-7-carboxylate]?
inhibition in vivo at 200 mg/kg [1]: < 40%; in-vivo anti-tumor efficacy, statistical significance (in words): statistically significant

Which results are given for CCCc1nn(C)c2c(=O)n(C3OC(CO)C(O)C3O)nnc12 (centres unmarked) [Example 23, 3-(3,4-dihydroxy-5-(hydroxymethyl)tetrahydrofuran-2-yl)-5-methyl-7-propyl-3H-pyrazolo [4,3-d][1,2,3]triazin-4(5H)-one]?
inhibition in vivo at 100 mg/kg [2]: < 40%; in-vivo anti-tumor efficacy, statistical significance (in words): statistically significant

How did the inhibition in vivo at 300 mg/kg (Mus musculus, S-180, mice, ip, 300 mg/kg, read-out: Inhibition rate (%) S180 sarcoma) turn out when Cn1nc(N)c2nnn(C3OC(CO)C(O)C3O)c(=O)c21 (centres unmarked) [Example 24, 7-amino-3-(3,4-dihydroxy-5-(hydroxymethyl)tetrahydrofuran-2-yl)-5-methyl-3H-pyrazolo [4,3-d][1,2,3]triazin-4(5H)-one] was run?
The inhibition in vivo at 300 mg/kg was < 40%.

And the “in-vivo anti-tumor efficacy, statistical significance (in words)” value?
The value was “statistically significant”.

Which “in-vivo anti-tumor efficacy, statistical significance (in words)” value does the source give for CN(C)CCC(=O)Nc1nn(C)c2c(=O)n(C3OC(CO)C(O)C3O)nnc12 (centres unmarked) [Example 25, N-(3-(3,4-dihydroxy-5-(hydroxymethyl)tetrahydrofuran-2-yl)-5-methyl-4-oxo-4,5-dihydro-3H-pyrazolo[4,3-d][1,2,3]triazin-7-yl)-3-(dimethylamino) propanamide] here?
Its value is “statistically significant”.

And the “Inhibition rate (%) S180 sarcoma” value (mice, ip, 200 mg/kg)?
Its value is “++ (++ represent of Inhibition rate % <40)”.

With Cn1nc(C#N)c2nnn(C3OC(CO)C(O)C3O)c(=O)c21 (centres unmarked) [Example 26, 3-(3,4-dihydroxy-5-(hydroxymethyl)tetrahydrofuran-2-yl)-5-methyl-4-oxo-4,5-dihydro-3H-pyrazolo[4,3-d][1,2,3]triazine-7-carbonitrile] as the compound, how does the inhibition in vivo at 70 mg/kg (Mus musculus, S-180, mice, ip, 70 mg/kg, read-out: Inhibition rate (%) S180 sarcoma) read?
Its inhibition in vivo at 70 mg/kg is < 40%.

What about the “in-vivo anti-tumor efficacy, statistical significance (in words)” value of the same compound?
The value was “statistically significant”.

For Cn1nc(N2CCCCC2)c2nnn(C3OC(CO)C(O)C3O)c(=O)c21 (centres unmarked) [Example 27, 3-(3,4-dihydroxy-5-(hydroxymethyl)tetrahydrofuran-2-yl)-5-methyl-7-(piperidin-1-yl)-3H-pyrazolo[4,3-d][1,2,3]triazin-4(5H)-one], which inhibition in vivo at 15 mg/kg [3] is on record?
Its inhibition in vivo at 15 mg/kg is < 20%.

How did the inhibition in vivo at 20 mg/kg (Mus musculus, S-180, mice, iv, 20 mg/kg, read-out: Inhibition rate (%) S180 sarcoma) turn out when Cn1nc([N+](=O)[O-])c2nnn(C3OC(CO)C(O)C3O)c(=O)c21 (centres unmarked) [Example 28, 3-(3,4-dihydroxy-5-(hydroxymethyl)tetrahydrofuran-2-yl)-5-methyl-7-nitro-3H-pyrazolo [4,3-d][1,2,3]triazin-4(5H)-one] was run?
The inhibition in vivo at 20 mg/kg was < 40%.

What about the “in-vivo anti-tumor efficacy, statistical significance (in words)” value of the same compound?
Its value is “statistically significant”.

How did the inhibition in vivo at 15 mg/kg [3] turn out when COc1ccc(C(=O)Nc2nn(C)c3c(=O)n(C4OC(CO)C(O)C4O)nnc23)cc1 (centres unmarked) [Example 29, N-(3-(3,4-dihydroxy-5-(hydroxymethyl)tetrahydrofuran-2-yl)-5-methyl-4-oxo-4,5-dihydro-3H-pyrazolo[4,3-d][1,2,3]triazin-7-yl)-4-methoxybenzamide] was run?
Its inhibition in vivo at 15 mg/kg is < 20%.

With CCOC(=O)c1nn(CO)c2c(=O)n(C3OC(CO)C(O)C3O)nnc12 (centres unmarked) [Example 30, ethyl 3-(3,4-dihydroxy-5-(hydroxymethyl)tetrahydrofuran-2-yl)-5-(hydroxymethyl)-4-oxo-4,5-dihydro-3H-pyrazolo [4,3-d][1,2,3]triazine-7-carboxylate] as the compound, how does the inhibition in vivo at 400 mg/kg (Mus musculus, S-180, mice, ip, 400 mg/kg, read-out: Inhibition rate (%) S180 sarcoma) read?
The inhibition in vivo at 400 mg/kg was < 40%.

What about the “in-vivo anti-tumor efficacy, statistical significance (in words)” value of the same compound?
The value was “statistically significant”.

What does the source list for CCCc1nn(CO)c2c(=O)n(C3OC(CO)C(O)C3O)nnc12 (centres unmarked) [Example 31, 3-(3,4-dihydroxy-5-(hydroxymethyl)tetrahydrofuran-2-yl)-5-(hydroxymethyl)-7-propyl-3H-pyrazolo[4,3-d][1,2,3]triazin-4(5H)-one]?
inhibition in vivo at 100 mg/kg [2]: < 40%; in-vivo anti-tumor efficacy, statistical significance (in words): statistically significant

Which inhibition in vivo at 30 mg/kg (Mus musculus, S-180, mice, iv, 30 mg/kg, read-out: Inhibition rate (%) S180 sarcoma) does the source give for Nc1nn(CO)c2c(=O)n(C3OC(CO)C(O)C3O)nnc12 (centres unmarked) [Example 32, 7-amino-3-(3,4-dihydroxy-5-(hydroxymethyl)tetrahydrofuran-2-yl)-5-(hydroxymethyl)-3H-pyrazolo [4,3-d][1,2,3]triazin-4(5H)-one] here?
The inhibition in vivo at 30 mg/kg was < 40%.

What about the “in-vivo anti-tumor efficacy, statistical significance (in words)” value of the same compound?
The value was “statistically significant”.

How did the inhibition in vivo at 200 mg/kg [1] turn out when O=c1c2c(nnn1C1OC(CO)C(O)C1O)c([N+](=O)[O-])nn2CO (centres unmarked) [Example 36, 3-(3,4-dihydroxy-5-(hydroxymethyl)tetrahydrofuran-2-yl)-5-(hydroxymethyl)-7-nitro-3H-pyrazolo [4,3-d][1,2,3]triazin-4(5H)-one] was run?
The inhibition in vivo at 200 mg/kg was < 40%.

What about the “in-vivo anti-tumor efficacy, statistical significance (in words)” value of the same compound?
Its value is “statistically significant”.

For CCCc1nn(C2CC2)c2c(=O)n(C3OC(CO)C(O)C3O)nnc12 (centres unmarked) [Example 40, 5-cyclopropyl-3-(3,4-dihydroxy-5-(hydroxymethyl)tetrahydrofuran-2-yl)-7-propyl-3H-pyrazolo[4,3-d][1,2,3]triazin-4(5H)-one], which inhibition in vivo at 50 mg/kg [3] is on record?
Its inhibition in vivo at 50 mg/kg is < 20%.

Which results are given for CCOC(=O)c1nn(CC(N)=O)c2c(=O)n(C3OC(CO)C(O)C3O)nnc12 (centres unmarked) [Example 48, ethyl 5-(2-amino-2-oxoethyl)-3-(3,4-dihydroxy-5-(hydroxymethyl)tetrahydrofuran-2-yl)-4-oxo-4,5-dihydro-3H-pyrazolo[4,3-d][1,2,3]triazine-7-carboxylate]?
inhibition in vivo at 50 mg/kg [3]: < 40%; in-vivo anti-tumor efficacy, statistical significance (in words): statistically significant
